The record followed here is patent US20240352040A1, “CRYSTAL FORM OF RIPK1 INHIBITOR, ACID SALT THEREOF, AND CRYSTAL FORM OF ACID SALT THEREOF” (GENFLEET THERAPEUTICS (SHANGHAI) INC., priority 2021, published 2024).

Values after ≈ are worked out from the molar mass of the structure shown. Counter-ions that a name gives are not always drawn. Like-named read-outs stand apart in the source and are kept apart here.

What all share (type): physicochemical
The nature of series [1]: Rough solubility in different solvent systems at room temperature. The procedure:
The rough solubility of the free base anhydrous crystal form A of the compound of formula I obtained in Example 1 and the monohydrate crystal form C of the sulfate salt of the compound of formula I obtained in Example 4 was tested in different solvent systems at room temperature. About 2 mg of the solid sample was weighed into an HPLC vial, and then the corresponding solvent was gradually (50/50/200/700 μL in sequence) added thereto and shaken until the solid dissolved to clear. If the sample was still not dissolved to clear after the addition of 1 mL of solvent, no more solvent would be added. The rough solubility ranges calculated from the mass of the solid sample, the volume of the added solvent, and the observed dissolution phenomena are shown in Table 25-1 and Table 25-2.

Test in series [2]: as above
The note with it: 50 °C, organic solvent or mixture, thermodynamic from solid, *Dissolve to clear at 50° C.

Series [3] in a line: Hygroscopicity by dynamic vapor sorption (DVS) at 25° C. The procedure: (3) Dynamic vapor sorption (DVS): Dynamic vapor sorption (DVS) curves were collected on DVS Intrinsic from SMS (surface measurement systems). The relative humidity at 25° C. was corrected using the deliquescence points of LiCl, Mg(NO3)2, and KCl.
The hygroscopicity of the sample of the monohydrate crystal form C of the sulfate salt obtained in […] was evaluated through the DVS test from 0% RH to […] at 25° C.

Series [4] in a line: Suspension competition test between crystal forms of the sulfate salt (anhydrous/hydrate transformation relationship). On the procedure: A suspension competition test between the anhydrous crystal form A of the sulfate salt obtained in Example 5 and the anhydrous crystal form D of the sulfate salt obtained in Example 19 was set up, including conditions of 5° C., 25° C., and 50° C. in methanol and 25° C. in ACN. (Test numbers are from A1 to A4)
A suspension competition test between the monohydrate crystal form C of the sulfate salt obtained in Example 4 and the anhydrous crystal form A of the sulfate salt obtained in Example 5 was set up at room temperature, including a suspension competition test in ACN/H2O (aw=0/0.2/0.4/0.6/0.8) of different water activities at room temperature. (Test numbers are from B1 to B5)
The specific steps are as follows: 1) saturated solutions of sulfate salt in different solvent systems at room temperature were prepared; 2) equal mass of the corresponding samples of crystal form of sulfate salt (about 5 mg each) were added to 1 mL of saturated solution to form a suspension, respectively; 3) the suspension was magnetically stirred at corresponding temperature; 4) the remaining solid was separated and tested by XRPD.

Series [5] is described as follows: Solid state stability (XRPD crystal form, HPLC purity). The conditions noted are these: for Purity / Purity/initial purity / Initial purity: HPLC; for Crystal form transition: XRPD; for Initial purity: before the stability test, monohydrate crystal form C of sulfate salt. On the procedure:
(6) High performance liquid chromatography (HPLC): Purity and solubility in the test were determined by Agilent 1260 high performance liquid chromatograph, and the analytical conditions are shown in Table 4.
Appropriate amounts of the samples of the monohydrate crystal form C of the sulfate salt […], and then placed for one week in an open state of 40° C./75% RH. Solid samples separated under different conditions were respectively subjected to XRPD test to evaluate the transition of crystal forms, and subjected to HPLC test to evaluate purity and chemical stability.

Setting [6] is: 40° C./75% RH/1 week, open, listed as Example 4.
Setting [7] is: 40° C./75% RH/1 week, open, listed as Example 9.
Where [8] appears, read: 60° C./sealed/1 week, listed as Example 4.
Where [9] appears, read: 60° C./sealed/1 week, listed as Example 9.
Setting [10] is: sealed 24 hours at 60° C., open one week at 40° C./75% RH, two batches.

Regarding `Nc1nc2cc(-c3cnc4c(c3)C(=O)N(Cc3cc(OC(F)(F)F)ccc3F)CC4)ccn2n1`, the solubility in series [1] (dimethyl sulfoxide, organic solvent or mixture, thermodynamic from solid, Dimethyl sulfoxide, read-out: Solubility) was more than 42000 µg/mL; in series [2] (isopropanol) it was less than 2400 µg/mL.

Consider `Nc1nc2cc(-c3cnc4c(c3)C(=O)N(Cc3cc(OC(F)(F)F)ccc3F)CC4)ccn2n1` [free base anhydrous crystal form A, 3-(2-amino-[1,2,4]triazolo[1,5-a]pyridin-7-yl)-6-(2-fluoro-5-(trifluoromethoxy)benzyl)-7,8-dihydro-1,6-naphthyridin-5(6H)-one], for which the solubility result in series [1] (Methanol) is “S < 1.8 mg/mL”; in series [1] (acetone, organic solvent or mixture, thermodynamic from solid, Acetone, read-out: Solubility), less than 1800 µg/mL; in series [1] (acetonitrile, organic solvent or mixture, thermodynamic from solid, Acetonitrile, read-out: Solubility) it was less than 1900 µg/mL; in series [1] (ethanol, organic solvent or mixture, thermodynamic from solid, Ethanol, read-out: Solubility) it was less than 2200 µg/mL; in series [1] (isopropanol, organic solvent or mixture, thermodynamic from solid, Isopropanol, read-out: Solubility), less than 1900 µg/mL; in series [1] (n-heptane, organic solvent or mixture, thermodynamic from solid, n-Heptane, read-out: Solubility), less than 1700 µg/mL. Besides, the solubility in series [1] (water, thermodynamic from solid, Water, read-out: Solubility) is less than 2100 µg/mL; in series [2] (dimethyl sulfoxide), 7700 to 23000 µg/mL (≈ 16.3 to 48.7 mM).

For `Nc1nc2cc(-c3cnc4c(c3)C(=O)N(Cc3cc(OC(F)(F)F)ccc3F)CC4)ccn2n1` [monohydrate crystal form C of the sulfate salt], the solubility result in series [1] (Acetone) is “S < 2.4 mg/mL”; in series [1] (Acetonitrile), “S < 2.4 mg/mL”; in series [1] (Water), “S < 2.4 mg/mL”; in series [1] (n-Heptane), “S < 2.3 mg/mL”. Besides, the hygroscopicity assessment entry in series [3] (DVS, 25° C.) is “slightly hygroscopic”. In addition, the hygroscopic weight gain entry in series [3] (DVS, 25° C./80% RH) was “about 0.2700”. Moreover, in series [3] (after DVS test), the “crystal form transition after the DVS test (XRPD)” value was “no crystal form transition”. For the same molecule, the “thermodynamic stability range under different water activities” value in series [4] (room temperature) is given as “relatively wide”. In addition, the Purity in series [5] (setting [6]) stood at 99.46%; in series [5] (setting [7]), 99.45%; in series [5] (setting [8]), 99.47%; in series [5] (setting [9]), 99.39%. Moreover, the Purity/initial purity is 99.98% in series [5] (setting [6]), 99.93% in series [5] (setting [7]), 99.99% in series [5] (setting [8]) and 99.87% in series [5] (setting [9]). Moreover, the Crystal form transition result is given as “No” in series [5] (40° C./75% RH/1 week, open) and “No” in series [5] (60° C./sealed/1 week). For the same molecule, the Initial purity came out at 99.48% in series [5] (listed as Example 4) and 99.52% in series [5] (listed as Example 9). In addition, the “change in HPLC purity” value in series [5] (setting [10]) is given as “do not show any significant decrease”. For the same molecule, the “change of crystal form (XRPD)” value in series [5] (setting [10]) was “does not change”.

As for `O=S(=O)(O)O` [sulfate], the “solid form obtained after stirring in water” value in series [4] (water, water activity of about 1) is reported as “free base crystal form A was obtained”.

In general, solubility refers to how much of the substance goes into solution per volume.
